From ChEMBL document CHEMBL3784933, “Synthesis and antitumor evaluation of trimethoxyanilides based on 4(3H)-quinazolinone scaffolds” (2016)

Key:
Type in all cases: functional
[1] = tested on: M14; assay: Cytotoxicity against human M14 cells assessed as growth inhibition at 10 uM after 48 hrs by SRB assay; conditions: M14, 48 h, read-out: GI
[2] = Cytotoxicity against human UO31 cells assessed as growth inhibition at 10 uM after 48 hrs by SRB assay; conditions: UO-31, 48 h, read-out: GI
[3] = tested on: SN12C; assay: Cytotoxicity against human SN12C cells assessed as growth inhibition at 10 uM after 48 hrs by SRB assay; conditions: read-out: GI
[4] = Cytotoxicity against human SNB19 cells assessed as growth inhibition at 10 uM after 48 hrs by SRB assay; conditions: SNB-19, 48 h, read-out: GI
[5] = tested on: Malme-3M; assay: Cytotoxicity against human MALME-3M cells assessed as growth inhibition at 10 uM after 48 hrs by SRB assay; conditions: read-out: GI
[6] = tested on: K562; assay: Cytotoxicity against human K562 cells assessed as growth inhibition at 10 uM after 48 hrs by SRB assay; conditions: K562, 48 h, read-out: GI
[7] = tested on: T47D; assay: Cytotoxicity against human T47D cells assessed as growth inhibition at 10 uM after 48 hrs by SRB assay; conditions: read-out: GI
[8] = Cytotoxicity against human RPMI8226 cells assessed as growth inhibition at 10 uM after 48 hrs by SRB assay; conditions: RPMI-8226, 48 h, read-out: GI
[9] = tested on: MDA-MB-231; assay: Cytotoxicity against human MDA-MB-231 cells assessed as growth inhibition at 10 uM after 48 hrs by SRB assay; conditions: MDA-MB-231, 48 h, read-out: GI
[10] = Cytotoxicity against human SKOV3 cells assessed as growth inhibition at 10 uM after 48 hrs by SRB assay; conditions: SK-OV-3, 48 h, read-out: GI
[11] = Cytotoxicity against human NCI-H322 cells assessed as growth inhibition at 10 uM after 48 hrs by SRB assay; conditions: NCI-H322, 48 h, read-out: GI
[12] = tested on: A498; assay: Cytotoxicity against human A498 cells assessed as growth inhibition at 10 uM after 48 hrs by SRB assay; conditions: A498, 48 h, read-out: GI
[13] = Cytotoxicity against human SNB75 cells assessed as growth inhibition at 10 uM after 48 hrs by SRB assay; conditions: SNB-75, 48 h, read-out: GI
[14] = tested on: KM12; assay: Cytotoxicity against human KM12 cells assessed as growth inhibition at 10 uM after 48 hrs by SRB assay; conditions: KM12, 48 h, read-out: GI
[15] = tested on: 786-0; assay: Cytotoxicity against human 786-0 cells assessed as growth inhibition at 10 uM after 48 hrs by SRB assay; conditions: 786-0, 48 h, read-out: GI
[16] = tested on: U-251; assay: Cytotoxicity against human U251 cells assessed as growth inhibition at 10 uM after 48 hrs by SRB assay; conditions: U-251, 48 h, read-out: GI
[17] = Cytotoxicity against human IGROV1 cells assessed as growth inhibition at 10 uM after 48 hrs by SRB assay; conditions: IGROV-1, 48 h, read-out: GI
[18] = tested on: EKVX; assay: Cytotoxicity against human EKVX cells assessed as growth inhibition at 10 uM after 48 hrs by SRB assay; conditions: read-out: GI
[19] = tested on: ACHN; assay: Cytotoxicity against human ACHN cells assessed as growth inhibition at 10 uM after 48 hrs by SRB assay; conditions: read-out: GI
[20] = tested on: SK-MEL-5; assay: Cytotoxicity against human SK-MEL-5 cells assessed as growth inhibition at 10 uM after 48 hrs by SRB assay; conditions: SK-MEL-5, 48 h, read-out: GI
[21] = tested on: NCI-H23; assay: Cytotoxicity against human NCI-H23 cells assessed as growth inhibition at 10 uM after 48 hrs by SRB assay; conditions: NCI-H23, 48 h, read-out: GI
[22] = Cytotoxicity against human UACC62 cells assessed as growth inhibition at 10 uM after 48 hrs by SRB assay; conditions: UACC-62, 48 h, read-out: GI
[23] = tested on: NCI-H522; assay: Cytotoxicity against human NCI-H522 cells assessed as growth inhibition at 10 uM after 48 hrs by SRB assay; conditions: NCI-H522, 48 h, read-out: GI
[24] = Cytotoxicity against human SF268 cells assessed as growth inhibition at 10 uM after 48 hrs by SRB assay; conditions: SF-268, 48 h, read-out: GI
[25] = Cytotoxicity against human RXF393 cells assessed as growth inhibition at 10 uM after 48 hrs by SRB assay; conditions: RXF 393, 48 h, read-out: GI
[26] = Cytotoxicity against human Hs 578T cells assessed as growth inhibition at 10 uM after 48 hrs by SRB assay; conditions: read-out: GI
[27] = tested on: A549; assay: Cytotoxicity against human A549 cells assessed as growth inhibition at 10 uM after 48 hrs by SRB assay; conditions: A549, 48 h, read-out: GI
[28] = Cytotoxicity against human OVCAR4 cells assessed as growth inhibition at 10 uM after 48 hrs by SRB assay; conditions: OVCAR-4, 48 h, read-out: GI
[29] = Cytotoxicity against human PC3 cells assessed as growth inhibition at 10 uM after 48 hrs by SRB assay; conditions: PC-3, 48 h, read-out: GI
[30] = Cytotoxicity against human HCT15 cells assessed as growth inhibition at 10 uM after 48 hrs by SRB assay; conditions: HCT-15, 48 h, read-out: GI
[31] = Cytotoxicity against human OVCAR8 cells assessed as growth inhibition at 10 uM after 48 hrs by SRB assay; conditions: OVCAR-8, 48 h, read-out: GI
[32] = Cytotoxicity against human HOP92 cells assessed as growth inhibition at 10 uM after 48 hrs by SRB assay; conditions: HOP-92, 48 h, read-out: GI
[33] = Cytotoxicity against human Caki1 cells assessed as growth inhibition at 10 uM after 48 hrs by SRB assay; conditions: CAKI-1, 48 h, read-out: GI
[34] = Cytotoxicity against human OVCAR3 cells assessed as growth inhibition at 10 uM after 48 hrs by SRB assay; conditions: OVCAR-3, 48 h, read-out: GI
[35] = tested on: MCF7; assay: Cytotoxicity against human MCF7 cells assessed as growth inhibition at 10 uM after 48 hrs by SRB assay; conditions: MCF7, 48 h, read-out: GI
[36] = Cytotoxicity against human SF295 cells assessed as growth inhibition at 10 uM after 48 hrs by SRB assay; conditions: SF-295, 48 h, read-out: GI
[37] = Cytotoxicity against human OVCAR5 cells assessed as growth inhibition at 10 uM after 48 hrs by SRB assay; conditions: OVCAR-5, 48 h, read-out: GI
[38] = tested on: NCI-H226; assay: Cytotoxicity against human NCI-H226 cells assessed as growth inhibition at 10 uM after 48 hrs by SRB assay; conditions: NCI-H226, 48 h, read-out: GI
[39] = Cytotoxicity against human HCT116 cells assessed as growth inhibition at 10 uM after 48 hrs by SRB assay; conditions: HCT-116, 48 h, read-out: GI
[40] = Cytotoxicity against human LOXIMVI cells assessed as growth inhibition at 10 uM after 48 hrs by SRB assay; conditions: LOX IMVI, read-out: GI
[41] = Cytotoxicity against human NCI-ADR-RES cells assessed as growth inhibition at 10 uM after 48 hrs by SRB assay; conditions: read-out: GI
[42] = tested on: MDA-MB-435; assay: Cytotoxicity against human MDA-MB-435 cells assessed as growth inhibition at 10 uM after 48 hrs by SRB assay; conditions: MDA-MB-435, 48 h, read-out: GI
[43] = Cytotoxicity against human MOLT4 cells assessed as growth inhibition at 10 uM after 48 hrs by SRB assay; conditions: MOLT-4, 48 h, read-out: GI
[44] = tested on: SR; assay: Cytotoxicity against human SR cells assessed as growth inhibition at 10 uM after 48 hrs by SRB assay; conditions: read-out: GI
[45] = Cytotoxicity against human SW620 cells assessed as growth inhibition at 10 uM after 48 hrs by SRB assay; conditions: SW-620, 48 h, read-out: GI
[46] = tested on: MDA-MB-468; assay: Cytotoxicity against human MDA-MB-468 cells assessed as growth inhibition at 10 uM after 48 hrs by SRB assay; conditions: MDA-MB-468, 48 h, read-out: GI
[47] = Cytotoxicity against human OVCAR1 cells assessed as growth inhibition at 10 uM after 48 hrs by SRB assay; conditions: OVCAR1, 48 h, read-out: GI
[48] = Cytotoxicity against human HL-60(TB) cells assessed as growth inhibition at 10 uM after 48 hrs by SRB assay; conditions: HL-60, 48 h, read-out: GI
[49] = tested on: SK-MEL-28; assay: Cytotoxicity against human SK-MEL-28 cells assessed as growth inhibition at 10 uM after 48 hrs by SRB assay; conditions: SK-MEL-28, 48 h, read-out: GI
[50] = tested on: SK-MEL-2; assay: Cytotoxicity against human SK-MEL-2 cells assessed as growth inhibition at 10 uM after 48 hrs by SRB assay; conditions: SK-MEL-2, 48 h, read-out: GI
[51] = Cytotoxicity against human UACC257 cells assessed as growth inhibition at 10 uM after 48 hrs by SRB assay; conditions: UACC-257, 48 h, read-out: GI
[52] = Cytotoxicity against human BT549 cells assessed as growth inhibition at 10 uM after 48 hrs by SRB assay; conditions: BT-549, 48 h, read-out: GI
[53] = tested on: CCRF-CEM; assay: Cytotoxicity against human CCRF-CEM cells assessed as growth inhibition at 10 uM after 48 hrs by SRB assay; conditions: read-out: GI

COc1cc(NC(=O)CSc2nc3ccc(Cl)cc3c(=O)n2-c2ccc(F)cc2)cc(OC)c1OC
inhibition of growth at 10 µM [1]: 16%
inhibition of growth at 10 µM [2]: 60%
inhibition of growth at 10 µM [3]: 22%
inhibition of growth at 10 µM [4]: 18%
inhibition of growth at 10 µM [5]: 15%
inhibition of growth at 10 µM [6]: 20%
inhibition of growth at 10 µM [7]: 28%
inhibition of growth at 10 µM [8]: 61%
inhibition of growth at 10 µM [9]: 34%
inhibition of growth at 10 µM [10]: 13%
inhibition of growth at 10 µM [11]: 14%
inhibition of growth at 10 µM [12]: 66%
inhibition of growth at 10 µM [13]: 28%
inhibition of growth at 10 µM [14]: 15%
inhibition of growth at 10 µM [15]: 25%
inhibition of growth at 10 µM [16]: 18%
inhibition of growth at 10 µM [17]: 14%
inhibition of growth at 10 µM [18]: 33%
inhibition of growth at 10 µM [19]: 15%
inhibition of growth at 10 µM [20]: 27%
inhibition of growth at 10 µM [21]: 15%
inhibition of growth at 10 µM [22]: 29%
inhibition of growth at 10 µM [23]: 21%
inhibition of growth at 10 µM [24]: 21%
inhibition of growth at 10 µM [25]: 20%
inhibition of growth at 10 µM [26]: 26%
inhibition of growth at 10 µM [27]: 17%
inhibition of growth at 10 µM [28]: 23%
inhibition of growth at 10 µM [29]: 27%
inhibition of growth at 10 µM [30]: 16%
inhibition of growth at 10 µM [31]: 12%
inhibition of growth at 10 µM [32]: 64%
inhibition of growth at 10 µM [33]: 29%
inhibition of growth at 10 µM [34]: 20%
inhibition of growth at 10 µM [35]: 13%
inhibition of growth at 10 µM [36]: 20%
inhibition of growth at 10 µM [37]: 12%
inhibition of growth at 10 µM [38]: 17%
inhibition of growth at 10 µM [39]: 21%
inhibition of growth at 10 µM [40]: 27%
inhibition of growth at 10 µM [41]: 19%
inhibition of growth at 10 µM [42]: 10%
inhibition of growth at 10 µM [43]: 39%

COc1cc(NC(=O)CSc2nc3ccc(C)cc3c(=O)n2-c2ccccc2)cc(OC)c1OC
inhibition of growth at 10 µM [1]: 21%
inhibition of growth at 10 µM [2]: 49%
inhibition of growth at 10 µM [4]: 13%
inhibition of growth at 10 µM [5]: 10%
inhibition of growth at 10 µM [44]: 58%
inhibition of growth at 10 µM [45]: 13%
inhibition of growth at 10 µM [6]: 13%
inhibition of growth at 10 µM [7]: 19%
inhibition of growth at 10 µM [8]: 24%
inhibition of growth at 10 µM [46]: 31%
inhibition of growth at 10 µM [9]: 23%
inhibition of growth at 10 µM [47]: 11%
inhibition of growth at 10 µM [12]: 38%
inhibition of growth at 10 µM [48]: 11%
inhibition of growth at 10 µM [13]: 43%
inhibition of growth at 10 µM [14]: 25%
inhibition of growth at 10 µM [15]: 11%
inhibition of growth at 10 µM [19]: 10%
inhibition of growth at 10 µM [20]: 23%
inhibition of growth at 10 µM [21]: 16%
inhibition of growth at 10 µM [49]: 17%
inhibition of growth at 10 µM [22]: 23%
inhibition of growth at 10 µM [23]: 32%
inhibition of growth at 10 µM [24]: 14%
inhibition of growth at 10 µM [25]: 14%
inhibition of growth at 10 µM [27]: 17%
inhibition of growth at 10 µM [50]: 14%
inhibition of growth at 10 µM [51]: 18%
inhibition of growth at 10 µM [28]: 32%
inhibition of growth at 10 µM [29]: 18%
inhibition of growth at 10 µM [30]: 19%
inhibition of growth at 10 µM [31]: 13%
inhibition of growth at 10 µM [32]: 51%
inhibition of growth at 10 µM [33]: 12%
inhibition of growth at 10 µM [34]: 16%
inhibition of growth at 10 µM [38]: 18%
inhibition of growth at 10 µM [39]: 13%
inhibition of growth at 10 µM [40]: 25%
inhibition of growth at 10 µM [41]: 25%
inhibition of growth at 10 µM [42]: 53%
inhibition of growth at 10 µM [52]: 21%
inhibition of growth at 10 µM [53]: 17%
inhibition of growth at 10 µM [43]: 41%
